Source: paper PMC6220849, “Mechanistic and structural studies of KDM‐catalysed demethylation of histone 1 isotype 4 at lysine 26” (Febs Letters, 2018)
Square brackets hold non-standard residues; d marks the D form. Ends that are not written are not given here. Lys(Me3) = C[N+](C)(C)CCCC[C@H](N)C(=O)O

Experiments:
Format in all cases: biochemical, human
KDM3A (KDM3A515–1317) = test: MALDI-TOF MS demethylation activity assay, KDM3A; parameters: key: 🟢: Indicates that clear demethylation activity was observed; 🟡: Indicates that low level demethylation activity was observed (<10% conversion after 1 h); 🔴: Indicates no activity under the stated conditions (1 μM KDM, 10 μM peptide); 🟡*: *Indicates demethylation activity was only observed with 5 μM KDM; details: peptide as substrate, 1 μM KDM, 10 μM peptide, 50 mM HEPES pH 7.5, Fe(II) 10 μM, ascorbate 100 μM, 2OG 200 μM, 1 mM TCEP, 1 h at 37 °C
Protocol: (§1) Recombinant proteins (1 μM) were incubated with peptides (10 μM, sequences are given in Table S1) in 50 mM HEPES, pH 7.5 with addition of Fe(II) ammonium sulfate (10 μM), sodium ascorbate (100 μM) and 2‐oxoglutaric acid (200 μM). Reactions with KDM3A and KDM7A also contained 1 mM tris(2‐carboxyethyl)phosphine hydrochloride. No enzyme reactions were included as negative controls. Reactions were incubated for 1 h at 37 °C before being quenched with 1 : 1 (v/v) methanol. Analysis was carried out by MALDI‐TOF MS (Bruker, Billerica, MA, USA), with demethylation observed as mass shifts of 14 Da.
(§2) The propensity of human JmjC KDMs to catalyse demethylation at H1.4K26 was investigated using recombinant forms of the catalytic domains of representatives of each human JmjC KDM subfamily (KDM2‐7) and fragment peptides (Table S1) 37. Three peptides with identical sequences, corresponding to residues 18–32 of histone H1.4 (H2N‐[…]‐CONH2), but containing either a N ^ε‐tri‐, di‐ or monomethyllysine at K26 were synthesised (Fig. 1B and Table S1). Activity assays monitoring JmjC KDM‐catalysed demethylation of the peptides were then carried out; samples were prepared containing each peptide, 2‐oxoglutarate (2OG), ferrous iron, ascorbate and individual representatives from each JmjC KDM subfamily (KDM2A 38, KDM3A 21, KDM4E 22, KDM5C 39, 40, KDM6B 41, KDM7A 42).

KDM4C (KDM4C1–359) = test: MALDI-TOF MS demethylation activity assay, KDM4C; parameters: key: 🟢: Indicates that clear demethylation activity was observed; 🟡: Indicates that low level demethylation activity was observed (<10% conversion after 1 h); 🔴: Indicates no activity under the stated conditions (1 μM KDM, 10 μM peptide); 🟡*: *Indicates demethylation activity was only observed with 5 μM KDM; details: peptide as substrate, 1 μM KDM, 10 μM peptide, 50 mM HEPES pH 7.5, Fe(II) 10 μM, ascorbate 100 μM, 2OG 200 μM, 1 h at 37 °C
Protocol: as §1
(§3) Given the activity observed with KDM4E and KDM7A, we decided to investigate the intra‐subfamily conservation of this demethylation activity. The demethylation activity of the other subfamily members (KDM4A‐D and KDM7B) was therefore screened. […] Note that as with H3K9, demethylation of the monomethylated H1.4K26 peptide was only observed with KDM4E, under the stated conditions 24.

KDM4D (KDM4D1–359) = test: MALDI-TOF MS demethylation activity assay, KDM4D; parameters: key: 🟢: Indicates that clear demethylation activity was observed; 🟡: Indicates that low level demethylation activity was observed (<10% conversion after 1 h); 🔴: Indicates no activity under the stated conditions (1 μM KDM, 10 μM peptide); 🟡*: *Indicates demethylation activity was only observed with 5 μM KDM; details: peptide as substrate, 1 μM KDM, 10 μM peptide, 50 mM HEPES pH 7.5, Fe(II) 10 μM, ascorbate 100 μM, 2OG 200 μM, 1 h at 37 °C
Protocol: as §1, §3

KDM5C (KDM5C1–765) = test: MALDI-TOF MS demethylation activity assay, KDM5C; parameters: key: 🟢: Indicates that clear demethylation activity was observed; 🟡: Indicates that low level demethylation activity was observed (<10% conversion after 1 h); 🔴: Indicates no activity under the stated conditions (1 μM KDM, 10 μM peptide); 🟡*: *Indicates demethylation activity was only observed with 5 μM KDM; details: peptide as substrate, 1 μM KDM, 10 μM peptide, 50 mM HEPES pH 7.5, Fe(II) 10 μM, ascorbate 100 μM, 2OG 200 μM, 1 h at 37 °C
Protocol: as §1, §2

KDM7A (KDM7A38–480) = test: MALDI-TOF MS demethylation activity assay, KDM7A; parameters: key to demethylation activity on methylated H1.4 peptide: 🟢: Indicates that clear demethylation activity was observed; 🟡: Indicates that low level demethylation activity was observed (<10% conversion after 1 h); 🔴: Indicates no activity under the stated conditions (1 μM KDM, 10 μM peptide); 🟡*: *Indicates demethylation activity was only observed with 5 μM KDM; details: peptide as substrate; MALDI-TOF MS; 1 μM KDM, 10 μM peptide, 50 mM HEPES pH 7.5, Fe(II) 10 μM, ascorbate 100 μM, 2OG 200 μM, 1 mM TCEP, 1 h at 37 °C
Protocol: as §1, §2
N ^ε‐Trimethylated H3K4 binds to the plant homeobox domain of KDM7B, targeting the N ^ε‐dimethyllysine at H3K9 to the catalytic domain, and thus promoting demethylation 29, 44. To test whether similar targeting may occur with H1.4, promoting activity at H1.4K26, an H1.4 peptide was synthesised containing di‐N ^ε‐methyllysine at K26 and tri‐N ^ε‐methyllysine at K21 (i.e. at the equivalent position in the sequence to K4 in the H3 peptide, Fig. 1B, Table S1). Monomethylation at H1.4K21 has previously been observed by proteomic mass spectrometry 45. With the aim of enhancing activity, the enzyme concentration was increased from 1 μM to 5 μM, and time course analyses were conducted with both KDM7A and KDM7B, both with the new peptide (H1.4(18–32)K21me3K26me2) and the H1.4 peptides methylated only at K26 (Fig. 2B). […] Thus, it appears unlikely that N ^ε‐trimethylation at H1.4K21 promotes demethylation at H1.4K26 by KDM7B.

KDM4A = test: 1H NMR activity assay (time course); details: KDM4A 10 μM, peptide 400 μM, 2OG 400 μM, Fe(II) 100 μM, ascorbate 1 mM, 50 mM ammonium formate pH 7.5, 500 mM NaCl, 700 MHz
Protocol: The NMR analyses employed a Bruker Avance III 700 MHz spectrometer with an inverse TCI cryoprobe optimised for ^1H observation and were carried out as previously described 6. Samples (KDM4A (10 μM), 2OG (400 μM), H1.4(18–32)K26me3 peptide (400 μM), Fe(II) ammonium sulfate (100 μM) and ascorbate (1 mM) in 50 mM ammonium formate, pH 7.5, 500 mM NaCl in 10% v/v D2O) were prepared in a microcentrifuge tube (total volume = 75 μL), before being transferred to an NMR tube. The samples were then analysed over time using automated routines; each time‐point corresponded to one experiment accumulating 16 transients (89 s total acquisition time per experiment). The solvent resonance was depleted by excitation sculpting using a 180° sinc pulse (duration = 2 ms) 30.
Studies then focused on determining the proficiency of H1.4K26 demethylation by the KDM4 enzymes.

TPVKKKAR[Lys(Me3)]SAGAAK [H1.4(18–32)K26me3, peptide of residues 18–32 of histone H1.4 with N ε-trimethyllysine at K26]
demethylation activity on methylated H1.4 peptide (KDM3A (KDM3A515–1317)): 🔴
demethylation activity on methylated H1.4 peptide (KDM4C (KDM4C1–359)): 🟢
demethylation activity on methylated H1.4 peptide (KDM4D (KDM4D1–359)): 🟢
demethylation activity on methylated H1.4 peptide (KDM5C (KDM5C1–765)): 🔴
demethylation activity on methylated H1.4 peptide (KDM7A (KDM7A38–480)): 🔴
demethylation of the Kme3 residue by 1H NMR (result in words) (KDM4A): time‐dependent demethylation
